Activity calls are given as the source filed them.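 Rule for the calls: active = normalized viability below 40% relative to DMSO and staurosporine controls, called cytotoxic; inactive = the rest.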

From PubChem BioAssay AID504874 (NMMLSC, 2011) come the findings set out here.

The assay deals with L1210 murine leukemia viability, fluorescein diacetate flow cytometry, 48 h. Put plainly: viability of murine L1210 leukemia line – cell-based, cytotoxicity control for T cell immune modulator project (AID 504874). The conditions noted are these: at 20 µM; active compounds read low.
`c1ccc(COc2ccc(OCCN3CCCCC3)cc2)cc1`: the viability – broadly, a read-out of living cells in per cent, often relative to untreated cells – was 57.1% (inactive). For `CCCCOc1ccc(C(=O)NCC(=O)N2CCN(C(=O)c3ccco3)CC2)cc1`, the viability was 107% (inactive). Consider `CCC1(C)NC(=O)N(CC(=O)N2N=C(c3ccccc3)CC2c2ccc(OC)cc2)C1=O` (stereo not drawn), for which the viability was 103% (inactive). The same measure for `COC(=O)c1ccccc1NC(=O)C1CCN(C(=O)c2cc(OC)cc(OC)c2)CC1`: 108% (inactive); for `O=C(NCCN1CCN(c2ccccc2)CC1)c1cccc(Br)c1`: 96.4% (inactive).

With `COCCCN1CCc2[nH]c(=S)[nH]c(=O)c2C1`, the viability was 102% (inactive). The same measure for `CC(=O)c1ccc(-c2csc(N3CCC(C(N)=O)CC3)n2)cc1`: 70.7% (inactive); for `Cc1ccc(Cn2c([N+](=O)[O-])cnc2C)cc1`: 104% (inactive). Take `COc1ccccc1NS(=O)(=O)c1cc(NC(=O)CNC(=O)c2cc(C)cc(C)c2)ccc1C`: the viability is 61.6% (inactive).

In the case of `O=C1CC(c2nc3ccccc3[nH]2)CN1Cc1ccccc1` (stereo not drawn), the viability was 103% (inactive).

For the molecule `CCN(CC)S(=O)(=O)c1ccc(Cl)c(NC(=O)COC(=O)C2CCCCC2)c1`, the viability was 102% (inactive).

Consider `Cc1cc(C)n(C(=O)c2sc3cc(F)ccc3c2Cl)n1`, for which the viability is 107% (inactive). Consider `Cc1ccc(S(=O)(=O)N2CCN(S(=O)(=O)N(C)C)CC2)c(C)c1`, for which the viability was 105% (inactive). With `COc1ccc(NC(=O)CC2C(=O)N(Cc3ccccc3)C(=S)N2CCN2CCOCC2)cc1` (stereo not drawn) the figure was 98.8% (inactive); with `CN1CCN(S(=O)(=O)c2ccc(C(=O)Nc3ccccc3)cc2)CC1`, 108% (inactive). `Cc1cccc(NC(=O)C2CCN(S(=O)(=O)c3c(C)[nH]c(=O)[nH]c3=O)CC2)c1`: the viability is 110% (inactive). For the molecule `CN1CCN(S(=O)(=O)c2cccc(C(=O)Nc3cc(C(F)(F)F)ccc3N3CCCCC3)c2)CC1`, the viability is 102% (inactive).

Consider `CCOC(=O)c1c(C=O)c2ccccc2n1CC`, for which the viability was 104% (inactive). With `Cc1ccc(NC(=O)COC(=O)CCc2c[nH]c3ccccc23)c(C)c1` the figure was 122% (inactive); with `Cc1ccc(O)c(CCc2ccccc2)n1`, 116% (inactive); with `CCOC(=O)C1CCCN(S(=O)(=O)c2ccc(F)c(C(=O)Nc3ccc(F)c(F)c3)c2)C1` (stereo not drawn), 91.6% (inactive). In the case of `Cc1ccc(N2CC(C(=O)NC3=NCCS3)CC2=O)cc1` (stereo not drawn), the viability was 102% (inactive). Turning to `COc1ccc(Nc2ccccc2N)cc1`, the viability was 90.2% (inactive). Regarding `COCc1c(C(=O)Nc2cccc(S(=O)(=O)N3CCCCC3)c2)oc2ccccc12`, the viability is 78.5% (inactive). As to `COc1ccc(C(O)c2coc3ccc(O)c(CN(C)C)c23)cc1` (stereo not drawn), the viability is 87.4% (inactive).

As to `O=C(NCc1cccnc1)C(=O)NCC(c1ccco1)N1CCN(c2ccccc2)CC1` (stereo not drawn), the viability is 106% (inactive). With `O=C(COC(=O)C12CC3CC(CC(Br)(C3)C1)C2)Nc1cccc(S(=O)(=O)N2CCOCC2)c1`, the viability was 99.3% (inactive).

On to `Cc1ccccc1C(=O)N1CCC(C(=O)Nc2ccc(C)c(S(=O)(=O)N3CCCCC3)c2)CC1`, for which the viability was 15.6%. Turning to `CCN(CC)C(=O)N1CCN(S(=O)(=O)c2ccc(C)cc2)CC1`, the viability was 96.8% (inactive). For `COc1ccc(S(=O)(=O)N2CCCCC2)cc1NC(=O)c1cnc(C)cn1`, the viability was 105% (inactive). The same measure for `Cc1ccc(S(=O)(=O)N2CCN(C(=O)CNC(=O)c3ccc(Cl)cc3)CC2)cc1`: 96.1% (inactive); for `CC(=O)Nc1ccc(S(=O)(=O)NC2CCSc3ccccc32)cc1` (stereo not drawn): 110% (inactive); for `CCOCC(=O)Nc1ccc(S(=O)(=O)N2CCC(c3nc4ccccc4[nH]3)CC2)cc1`: 106% (inactive). For the molecule `COc1ccc(NC(=O)CSCC(=O)Nc2cccc(S(=O)(=O)N3CCCCCC3)c2)cc1`, the viability is 68.7% (inactive).

With `CCOc1ccc(-c2nc(N)ncc2-c2ccccc2)c(O)c1`, the viability was 105% (inactive). As to `NC(=O)C1CCN(c2nc(-c3cc4ccccc4o3)cs2)CC1`, the viability was 109% (inactive). For the molecule `Cc1cc(=O)oc2c3c(cc(OCC(=O)NCc4ccncc4)c12)OC(C)(C)CC3`, the viability was 110% (inactive).

In the case of `CCOC(=O)c1ccc(S(=O)(=O)N2CCN(C3CCCC3)CC2)cc1`, the viability is 102% (inactive). With `O=C(NNS(=O)(=O)c1ccc2ccccc2c1)c1cccs1`, the viability is 110% (inactive).

Turning to `CCCCn1nc(C(=O)N2CCN(S(=O)(=O)c3ccccc3)CC2)c2ccccc2c1=O`, the viability was 100% (inactive). Take `O=C(CC1=NCCNC(c2ccccc2)C1)c1ccccc1O` (stereo not drawn): the viability is 115% (inactive). The same measure for `COc1ccc(S(=O)(=O)N2CCCC2C(=O)Nc2ccc(C(C)=O)cc2)cc1` (stereo not drawn): 112% (inactive). For the molecule `Cc1sc2ncnc(NCC(C)(C)N3CCOCC3)c2c1C`, the viability was -4.46%. For the molecule `CN(CC(=O)Nc1cc(S(=O)(=O)N2CCCC2)ccc1Cl)Cc1ccc2c(c1)OCO2`, the viability is 92.1% (inactive). Regarding `CN(C)S(=O)(=O)c1cccc(-n2sc3ccccc3c2=O)c1`, the viability was 35.5%. `Cc1cc(Cl)c(OCCCSc2nc(C)cc(=O)[nH]2)c(Br)c1`: the viability is 107% (inactive).

With `Cn1c(CNC(=O)CNC(=O)c2ccc(F)cc2)cc(=O)n(C)c1=O`, the viability was 100% (inactive). Turning to `CCOC(=O)c1ccc(NC(=O)CN2C(=O)NC3(CCCCCCC3)C2=O)cc1`, the viability was 98.6% (inactive). On to `O=C(NCCC1=CCCCC1)C(=O)NCC(c1ccco1)N1CCN(c2ccccc2F)CC1` (stereo not drawn), for which the viability is 109% (inactive). For `O=C(OCCOc1cccc(Cl)c1)c1ccc(F)c(S(=O)(=O)N2CCOCC2)c1`, the viability was 109% (inactive). As for `O=C(CCC(=O)N1CCOCC1)NCc1cccc(C(F)(F)F)c1`, the viability is 110% (inactive). With `Cc1ccc(C(=O)NCCCN2CCOCC2)c(C)c1`, the viability is 108% (inactive). In the case of `COc1ccc([N+](=O)[O-])cc1NC(=O)c1ccc(N(Cc2ccccc2C)S(C)(=O)=O)cc1`, the viability was 111% (inactive). For the molecule `COc1ccc(CNC(=O)c2cccnc2SC)cc1OC`, the viability was 101% (inactive). For the molecule `O=C(c1ccc(N2C(=O)C3CC=C(Cl)CC3C2=O)cc1)N1CCCCC1` (stereo not drawn), the viability was 107% (inactive). Consider `CC1CCCCC1NC(=O)COC(=O)c1ccc2ncsc2c1` (stereo not drawn), for which the viability was 92.6% (inactive). On to `CCOc1ccc(CCNC(=O)CCS(=O)(=O)c2ccc(C)cc2)cc1OCC`, for which the viability is 90.1% (inactive). As for `O=C(Cn1cc(C(F)(F)F)cc(Cl)c1=O)NCCc1ccc(Cl)cc1Cl`, the viability was 103% (inactive). In the case of `CC(Sc1nc2ccccc2[nH]1)C(=O)NC1CCCCC1C` (stereo not drawn), the viability is 98.6% (inactive). As for `CC(C)(C)NC(=O)COc1ccc(CNCc2cccnc2)cc1`, the viability is 108% (inactive). Regarding `CCOC(=O)N1CCN(C(=O)c2ccc(CS(=O)Cc3ccc(C)cc3)o2)CC1` (stereo not drawn), the viability is 107% (inactive). On to `CCCNC(=O)c1nc2ncc(Br)cn2n1`, for which the viability was 103% (inactive).

`Cc1ncc([N+](=O)[O-])n1Cc1cccc(F)c1`: the viability is 104% (inactive). Turning to `COc1ccccc1CNC(=O)COc1ccc(C)cc1`, the viability was 99.1% (inactive).

In the case of `O=C(O)C1CCC(Cn2c(SCc3cc(=O)n4cc(Cl)ccc4n3)nc3ccsc3c2=O)CC1` (stereo not drawn), the viability was 111% (inactive). With `CCOC(=O)c1c(N2C(=O)CC(Sc3ccccc3C(=O)O)C2=O)sc2c1CCCC2` (stereo not drawn) the figure was 98% (inactive); with `CCN(CC)CCNC(=O)CCCNC(=O)Cn1cnc2sc(C)c(C)c2c1=O`, 104% (inactive); with `COc1ccc(/C=C2\SC(=S)N(CCC(=O)N3CCOCC3)C2=O)cc1`, 90.8% (inactive). Take `COc1ccc(C2=Nc3cc(C)ccc3OC2)cc1`: the viability was 108% (inactive).

For `O=C(NCC1CCCCC1)c1ccc(Cl)c(S(=O)(=O)N2CCOCC2)c1`, the viability was 114% (inactive).

Regarding `CN(C)S(=O)(=O)c1ccc(C(=O)NCCc2ccco2)cc1`, the viability is 108% (inactive). With `Cc1ccc(OCCOC(=O)c2cc(S(=O)(=O)N3CCCCC3)ccc2N2CCOCC2)cc1` the figure was 92.3% (inactive); with `Cc1ccccc1C(=O)NCC(=O)N1CCN(C/C=C/c2ccccc2)CC1`, 83.1% (inactive); with `CCCc1nnc(NC(=O)c2ccc(S(=O)(=O)N(C)c3ccccc3OC)cc2)s1`, 59.6% (inactive).

`COc1cccc(NC(=O)Nc2ccc3nc(C)c(C)nc3c2)c1`: the viability was 82.2% (inactive).

On to `O=C(CS(=O)(=O)Cc1ccccc1)N1CCc2ccccc21`, for which the viability is 102% (inactive). Consider `CCC(C(=O)Nc1ccccc1)c1ccccc1` (stereo not drawn), for which the viability was 98.3% (inactive).

In the case of `COc1ccc(N2CC(C(=O)NC(C)C(=O)NCc3ccccc3OC)CC2=O)cc1` (stereo not drawn), the viability is 104% (inactive).
